Results from patent publication US8940491B2, “Genotoxicity as a biomarker for inflammation” (The Regents of the University of California, priority 2009, dated 2015).
Entries after “also recorded” stand apart in the source; their conditions may differ.

B1: IL-1β: mouse IL-1β (Sigma) injected via the tail vein at 100 ng/mouse (protein, UniProt P10749 118-269, looked up)
Interleukin-1 beta: VPIRQLHYRLRDEQQKSLVLSDPYELKALHLNGQNINQQVIFSMSFVQGEPSNDKIPVALGLKGKNLYLSCVMKDGTPTLQLESVDPKQYPKKKMEKRFVFNKIEVKSKVEFESAEFPNWYISTSQAEHKPVFLGNNSGQDIIDFTMESVSS

Key:
[1] = system: normochromatic erythrocytes; test: Micronucleus assay after cytokine injection; format: in vivo, mouse; conditions: 48 hours post-injection compared to before injection
Protocol: In vivo micronucleus assay. Micronucleus formation was determined in normochromatic erythrocytes as micronucleated normochromatic erythrocytes per 1000 normochromatic erythrocytes as described previously (1, 8).
Injection of cytokines. […] Control animals received vehicle only.

peripheral leukocytes [2] = conditions: mouse, in vivo
Protocol: Alkaline comet assay. To detect DNA strand breaks, as well as alkali labile sites in DNA, the alkaline comet assay was performed as described elsewhere (4). Frozen blood or single cell suspensions were thawed on ice and further diluted 1:15 in PBS before further sample preparation. After lysis and electrophoresis, gels were stained with SYBR Gold (Molecular Probes) and visualized under a fluorescent microscope (Olympus Ax70, Tokyo, Japan) at 10× magnification. Comet images were captured and analyzed with the CASP image analysis program (http://casp.sourceforge.net). The olive tail moment, which represents both tail length and fraction of DNA in the tail, was used for data collection and analysis, in which apoptotic cells were excluded under previously proposed criteria (4).
Injection of cytokines. Mouse TNF-α (Sigma) and/or mouse IL-1β (Sigma) were injected via the tail vein at 500 ng/mouse and 100 ng/mouse, respectively, dissolved in saline. Control animals received vehicle only. Peripheral blood was collected at 1 hr, 2 hrs, 4 hrs, and 24 hrs after injection for genotoxicity assays.

erythroblasts = test: In vivo micronucleus assay in Atm−/−, Atm+/− and wildtype mice with DSS colitis; set-up: species or system mouse; conditions: all genotypes, more severe in Atm−/−
Protocol: In vivo micronucleus assay. […] At least 4000 mature erythrocytes were counted per animal, and the frequency of MN formation was calculated as the number of micronucleated erythrocytes per 1000 normochromatic erythrocytes.

peripheral leukocytes [3] = test: γ-H2AX immunofluorescence, DSS colitis; format: in vivo, mouse
Description: (§1) Immunofluorescence. […] Samples were then processed on coverslips essentially as described elsewhere (26).

peripheral leukocytes [4] = test: Alkaline comet assay with and without hOgg1 incubation, DSS colitis; format: in vivo, mouse
Description: Blood collection. […] Identical blood samples were used for genotoxic endpoints as well as for cytokine expression.
Alkaline comet assay. […] Frozen blood was further diluted 1:15 in PBS before further preparation.
Determination of oxidative DNA damage. The enzyme hOgg1-modified comet assay was used for determination of oxidative DNA damage (25). […] (New England Biolabs, Ipswich, Mass.).

peripheral leukocytes [5] = test: 8-oxoguanine and nitrotyrosine immunofluorescence, DSS colitis; format: in vivo, mouse; conditions: DSS 7 days, 3% w/v; p<0.01
Description: as §1
8-oxoguanine is an oxidative DNA lesion formed by reaction of hydroxyl radicals, metal hyrdroperoxides, or peroxynitrite with DNA, causing G:C to T:A transversions during replication (33). Nitrotyrosine is a biochemical marker for NO-induced peroxynitrite formation involving reactions with reactive oxygen and nitrogen species resulting in nitrative damage to proteins (34).

[6] = literature references; cited from earlier work
peripheral blood T-cells = test: Flow cytometry of activated T-cells (CD69, CD44) in peripheral blood, DSS colitis; format: in vivo, mouse; conditions: in response to DSS treatment
Description: Flow Cytometry. T cell populations were characterized for activation status (CD69 and CD44) and CD4 or CD8α expression using flow cytometry. Erythrocytes were immediately lysed with BD PharmLyse Lysis Buffer (BD Biosciences, San Diego, Calif.). After washing with Stain Buffer with 0.2% BSA (BD), cells were stained with FITC conjugated Hamster Anti-Mouse CD69, FITC conjugated Rat Anti-Mouse/Human CD44, R-PE conjugated Rat Anti-Mouse CD4, PerCP Rat Anti-Mouse CD8α, or appropriate negative isotype controls (BD Biosciences) for 30 min at 4° C. Cells were then washed and analyzed using BD FACScan. Fluorescence intensity was normalized to each respective isotype control antibody and data were analyzed with CellQuest® (BD Biosciences). Dead cells were excluded by gating on forward/side scatter. Marker expression was recorded either as percent positive of the absolute count of total T cells, or by median fluorescence intensity if the control and marker populations overlapped.

mice = test: Disease activity index in DSS-induced experimental colitis; format: in vivo
Protocol: Induction of chemical colitis. […] Acute colitis was defined as a 7 day treatment, and chronic colitis as any further treatment including remission periods. Control animals received sterile acidified water only. Symptoms (weight loss, stool consistency, gross bleeding) were recorded daily for calculation of disease activity index (23).
Evaluation of Experimental Colitis. The disease activity index (DAI) is the average combined score of weight loss (0-4), stool consistency (0-4), and bleeding (0-4), used to score clinical symptoms (23).

Molecule | Micronuclei formation in circulating normochromatic erythrocytes [1] | Sufficiency to induce genotoxicity to peripheral leukocytes (peripheral leukocytes [2]) | Time post-injection within which DNA damage was repaired (peripheral leukocytes [2]) | Micronucleus formation in erythroblasts (toxicity of inflammation) (erythroblasts) | Percentage of cells positive for γ-H2AX nuclear foci (peripheral leukocytes [3]; after the first 7 day acute DSS treatment vs non-treated, p<0.01) | Percentage of cells positive for γ-H2AX nuclear foci (peripheral leukocytes [3]; later cycles until end of treatment vs non-treated, p<0.05) | Mean olive tail moment (DNA single and double strand breaks, alkali-labile sites) (peripheral leukocytes [4]; DSS treated vs non-treated mice, end of each cycle, p<0.01) | Mean olive tail moment with hOgg1 incubation (oxidative base damage) (peripheral leukocytes [4]; after treatment cycles, treated vs hOgg1 incubated non-treated mice, p<0.05) | 8-oxoguanine and nitrotyrosine positive peripheral leukocytes (peripheral leukocytes [5]) | Mutagenicity / direct genotoxicity of DSS itself [6] | Proportion of activated (CD69+, CD44+) T-cells, Atm−/− vs wildtype mice (peripheral blood T-cells) | Mortality (mice; after three cycles of DSS treatment, wildtype mice) | Start of rectal bleeding (mice; cycle 1 of 3% DSS treatment)
TNF-α | minimally yet significantly elevated | sufficient to induce genotoxicity | ≤ 24 h |  |  |  |  |  |  |  |  |  | 
dextran sulfate sodium [DSS] |  |  |  | evident as early as after the acute 7 day treatment | increased dramatically | remained elevated over non-treated animals until end of treatment | significantly higher olive tail moments at the end of each cycle | higher when incubated with hOgg1 after treatment cycles | significant increase in both 8-oxoguanine and nitrotyrosine | not directly genotoxic; also recorded: not a mutagen nor genotoxic | significantly larger proportion of these T-cells are activated | no mortalities were observed | 4 days
B1 |  |  | ≤ 24 h |  |  |  |  |  |  |  |  |  | 
